In brackets after ≈: the same amount, converted by molar mass. Where two headings read alike, the source gives them in different places. No end group written: not given here.
Key:
[1] = system: human bronchial epithelial cells (HBE); test: LDH release assay (Cytotoxicity Detection Kit); assay type: cell-based; conditions: 24 hours; for LDH Release (OD490 nm): 100 μg/ml, no peptide control 1.0 ± 0.05; for toxicity / membrane damage: as measured by both assays (LDH, WST-1), HBE cells
Procedure: (§1) The potential toxicity of the peptides was measured in two ways. First, the Cytotoxicity Detection Kit (Roche) (Lactate dehydrogenase-LDH) Assay was used. It is a colorimetric assay for the quantification of cell death and cell lysis, based on the measurement of LDH activity released from the cytosol of damaged cells into the supernatant. LDH is a stable cytoplasmic enzyme present in all cells and it is released into the cell culture supernatant upon damage of the plasma membrane. An increase in the amount of dead or plasma membrane-damaged cells results in an increase of the LDH enzyme activity in the culture supernatant as measured with an ELISA plate reader, OD490 nm (the amount of color formed in the assay is proportional to the number of lysed cells). In this assay, human bronchial epithelial cells (I6HBEo14, HBE) cells were incubated with 100 μg of peptide for 24 hours, the supernatant removed and tested for LDH. The other assay used to measure toxicity of the cationic peptides was the WST-1 assay (Roche). This assay is a colorimetric assay for the quantification of cell proliferation and cell viability, based on the cleavage of the tetrazolium salt WST-1 by mitochondrial dehydrogenases in viable cells (a non-radioactive alternative to the [^3H]-thymidine incorporation assay). In this assay, HBE cells were incubated with 100 μg of peptide for 24 hours, and then 10 μl/well Cell Proliferation Reagent WST-1 was added. The cells are incubated with the reagent and the plate is then measured with an ELISA plate reader, OD490 nm.

HBE cells = test: WST-1 assay (cell viability); assay type: cell-based, human
Procedure: as §1

[2] = assay type: cell-based
A549 epithelial cells = test: Human Operon arrays (PRHU04-S1) of A549 cells treated with peptide alone (Tables 31-37, 53); conditions: peptide 50 μg/ml, 4 h, A549 cells; for X58467 cytochrome P450, expression Ratio ID#:ctrl: Table 36
[3] = Citobacter rhodensis, overnight, 96-well plate
[4] = Enterohaemorrhagic E. coli, overnight, 96-well plate
[5] = Escherichia coli, overnight, 96-well plate
[6] = Pseudomonas aeruginosa, overnight, 96-well plate
[7] = Salmonella enteritidis ssp. typhimurium, overnight, 96-well plate

RRDCRRVMVRGIDIKAK [SEQ ID NO: 36]
LDH Release (OD490 nm) [1]: 0.85 ± 0.04 OD490 nm
OD490 nm (WST-1 cell viability) (HBE cells): 1.58 ± 0.05 OD490 nm
MIC, C. rhod. ([2]; 24 h): 32 µg/mL
MIC, E. coli ([2]; 24 h): 32 µg/mL
MIC, EHEC ([2]; 24 h): 16 µg/mL
MIC, S. typhim. ([2]; 24 h): 32 µg/mL

Triton X-100 [reference compound]
LDH Release (OD490 nm) [1]: 4.6 ± 0.1 OD490 nm
OD490 nm (WST-1 cell viability) (HBE cells): 0.26 ± 0.01 OD490 nm

KQKLFAKMLMSALKKKTLVTTPLAGK [SEQ ID NO: 45]
LDH Release (OD490 nm) [1]: 0.98 ± 0.04 OD490 nm
OD490 nm (WST-1 cell viability) (HBE cells): 1.54 ± 0.35 OD490 nm
MIC, C. rhod. ([2]; 24 h): 16 µg/mL
MIC, E. coli ([2]; 24 h): 8 µg/mL
MIC, EHEC ([2]; 24 h): 16 µg/mL
MIC, P. aerug. ([2]; 24 h): 128 µg/mL
MIC, S. typhim. ([2]; 24 h): 128 µg/mL

RLARIVVIRVAR-NH2 [SEQ ID NO: 3, reference compound]
LDH Release (OD490 nm) [1]: 1.05 ± 0.04 OD490 nm
OD490 nm (WST-1 cell viability) (HBE cells): 1.35 ± 0.12 OD490 nm

CC[C@H](C)[C@H](NC(=O)[C@H](CC(C)C)NC(=O)[C@H](C)NC(=O)[C@@H]1CCCN1C(=O)[C@H](CC(C)C)NC(=O)CNC(=O)[C@@H](NC(=O)[C@@H](NC(=O)[C@H](CC(C)C)NC(=O)[C@@H](NC(=O)[C@H](CCCCN)NC(=O)[C@H](CCCCN)NC(=O)[C@H](CC(C)C)NC(=O)[C@H](C)NC(=O)[C@H](CCCCN)NC(=O)[C@H](CCSC)NC(=O)[C@H](CC(C)C)NC(=O)[C@H](CCSC)NC(=O)[C@H](CCCCN)NC(=O)[C@H](CC(C)C)NC(=O)[C@H](Cc1ccccc1)NC(=O)[C@H](CO)NC(=O)[C@H](CCCCN)NC(=O)[C@H](CO)NC(=O)[C@@H](N)CCCCN)C(C)C)[C@@H](C)O)[C@@H](C)O)C(=O)N[C@@H](CO)C(=O)O [SEQ ID NO: 41]
LDH Release (OD490 nm) [1]: 3.3 ± 0.2 OD490 nm
toxicity / membrane damage [1]: did induce membrane damage
OD490 nm (WST-1 cell viability) (HBE cells): 0.40 ± 0.01 OD490 nm
MIC, C. rhod. [2, 3]: 2 µg/mL (≈ 0.702 µM)
MIC, EHEC [2, 4]: 2 µg/mL (≈ 0.702 µM)
MIC, E. coli [2, 5]: 4 µg/mL (≈ 1.4 µM)
MIC, P. aerug. [2, 6]: 8 µg/mL (≈ 2.81 µM)
MIC, S. typhim. [2, 7]: 8 µg/mL (≈ 2.81 µM)
MIC, S. aureus ([2]; Staphylococcus aureus, overnight, 96-well plate): 64 µg/mL (≈ 22.5 µM)

RREAIRRVAMRGRDMKRMRR [SEQ ID NO: 31]
LDH Release (OD490 nm) [1]: 0.98 ± 0.03 OD490 nm
OD490 nm (WST-1 cell viability) (HBE cells): 1.84 ± 0.06 OD490 nm
MIC, EHEC ([2]; 24 h): 64 µg/mL
MIC, P. aerug. ([2]; 24 h): 128 µg/mL

KTKKFAKMLMMALKKVVSTAKPLAILS [SEQ ID NO: 42]
LDH Release (OD490 nm) [1]: 3.4 ± 0.2 OD490 nm
toxicity / membrane damage [1]: did induce membrane damage
OD490 nm (WST-1 cell viability) (HBE cells): 0.39 ± 0.08 OD490 nm
MIC, C. rhod. ([2]; 24 h): 2 µg/mL
MIC, E. coli ([2]; 24 h): 1.5 µg/mL
MIC, EHEC ([2]; 24 h): 1 µg/mL
MIC, P. aerug. ([2]; 24 h): 4 µg/mL
MIC, S. aureus ([2]; 24 h): 64 µg/mL
MIC, S. typhim. ([2]; 24 h): 2 µg/mL

KWKSYAHTIMSPVRLIFHTALKPISS [SEQ ID NO: 48]
LDH Release (OD490 nm) [1]: 0.95 ± 0.05 OD490 nm
OD490 nm (WST-1 cell viability) (HBE cells): 0.93 ± 0.08 OD490 nm
MIC, C. rhod. [2, 3]: 1 µg/mL
MIC, EHEC [2, 4]: 2 µg/mL
MIC, E. coli [2, 5]: 16 µg/mL
MIC, P. aerug. [2, 6]: 128 µg/mL
MIC, S. typhim. [2, 7]: 16 µg/mL

RAPYWPWAWARPRK [ID 21]
ID#:ctrl intensity ratio, X65962 cytochrome P-450 (A549 epithelial cells): 5.7

KMKSFAKMLMLALKKVLKVLTTALTLKAGLPS [ID 43]
X58467 cytochrome P450, expression Ratio ID#:ctrl (A549 epithelial cells): 7.9

KRTAIKKVSRRGMSVKARR [SEQ ID NO: 37]
LDH Release (OD490 nm) [1]: 0.96 ± 0.04 OD490 nm
OD490 nm (WST-1 cell viability) (HBE cells): 1.67 ± 0.02 OD490 nm

RAAFKWAWAWWRRK [ID 23]
ID#:ctrl intensity ratio, X65962 cytochrome P-450 (A549 epithelial cells): 19.8

RRAWWKAWWARRK [ID 20]
ID#:ctrl intensity ratio, X65962 cytochrome P-450 (A549 epithelial cells): 25.3

KCKLFKKMLMLALKKVLTTGLPALKLTK [ID 40]
X58467 cytochrome P450, expression Ratio ID#:ctrl (A549 epithelial cells): 15.4

KTKKFAKMLMMALKKVVSTAKPLAILS [ID 42]
X58467 cytochrome P450, expression Ratio ID#:ctrl (A549 epithelial cells): 4.7

TTLGPVKRDSIPGE [SEQ ID NO: 14]
LDH Release (OD490 nm) [1]: 0.99 ± 0.05 OD490 nm
OD490 nm (WST-1 cell viability) (HBE cells): 1.25 ± 0.02 OD490 nm

NLPDLKKPRVPATS [SEQ ID NO: 17]
LDH Release (OD490 nm) [1]: 0.94 ± 0.04 OD490 nm
OD490 nm (WST-1 cell viability) (HBE cells): 1.60 ± 0.46 OD490 nm

TTLGPVKRDSIPGE [ID 14]
ID#:ctrl intensity ratio, M14565 cytochrome P450 (A549 epithelial cells): 5.0

NLPDLKKPRVPATS [ID 17]
ID#:ctrl intensity ratio, M14565 cytochrome P450 (A549 epithelial cells): 6.3

Reference: patent US20070134261A1, “Effectors of innate immunity” (priority 2001, published 2007)
